{"source": "paper PMC12621043", "about": "“Un-LOK-ing a New Approach for Conformational Selective Targeting of STK10 (LOK)” (ACS Medicinal Chemistry Letters, 2025)"}
{"target": "T1, CDK2A (Homo sapiens, UniProt P24941)", "T1 construct": "purchased in-house DSF kinase panel (SGC-style construct names; the trailing letter is the construct ID)", "assay": "DSF Tm panel", "type": "binding", "details": "10 μM compound", "units": {"ΔTm at 10 µM": "°C"}}
{"smiles": "O=C(NCc1ccccc1)Nc1ccc2cc1OCCOCCNc1ccn3ncc-2c3n1", "note": "[compound 16]", "ΔTm at 10 µM": 4.1}
{"smiles": "O=C(NCc1ccccc1Cl)Nc1ccc2cc1OCCOCCNc1ccn3ncc-2c3n1", "note": "[compound 17]", "ΔTm at 10 µM": 2.9}
{"smiles": "O=C(NCc1cccc(Cl)c1)Nc1ccc2cc1OCCOCCNc1ccn3ncc-2c3n1", "note": "[compound 18]", "ΔTm at 10 µM": 4.3}
{"smiles": "O=C(NCc1ccc(Cl)cc1)Nc1ccc2cc1OCCOCCNc1ccn3ncc-2c3n1", "note": "[compound 19]", "ΔTm at 10 µM": 5.6}
{"target": "T2, EPHB3A (Homo sapiens, UniProt P54753)", "T2 construct": "purchased in-house DSF kinase panel (SGC-style construct names; the trailing letter is the construct ID)", "T2 sequence (P54753 34-998)": "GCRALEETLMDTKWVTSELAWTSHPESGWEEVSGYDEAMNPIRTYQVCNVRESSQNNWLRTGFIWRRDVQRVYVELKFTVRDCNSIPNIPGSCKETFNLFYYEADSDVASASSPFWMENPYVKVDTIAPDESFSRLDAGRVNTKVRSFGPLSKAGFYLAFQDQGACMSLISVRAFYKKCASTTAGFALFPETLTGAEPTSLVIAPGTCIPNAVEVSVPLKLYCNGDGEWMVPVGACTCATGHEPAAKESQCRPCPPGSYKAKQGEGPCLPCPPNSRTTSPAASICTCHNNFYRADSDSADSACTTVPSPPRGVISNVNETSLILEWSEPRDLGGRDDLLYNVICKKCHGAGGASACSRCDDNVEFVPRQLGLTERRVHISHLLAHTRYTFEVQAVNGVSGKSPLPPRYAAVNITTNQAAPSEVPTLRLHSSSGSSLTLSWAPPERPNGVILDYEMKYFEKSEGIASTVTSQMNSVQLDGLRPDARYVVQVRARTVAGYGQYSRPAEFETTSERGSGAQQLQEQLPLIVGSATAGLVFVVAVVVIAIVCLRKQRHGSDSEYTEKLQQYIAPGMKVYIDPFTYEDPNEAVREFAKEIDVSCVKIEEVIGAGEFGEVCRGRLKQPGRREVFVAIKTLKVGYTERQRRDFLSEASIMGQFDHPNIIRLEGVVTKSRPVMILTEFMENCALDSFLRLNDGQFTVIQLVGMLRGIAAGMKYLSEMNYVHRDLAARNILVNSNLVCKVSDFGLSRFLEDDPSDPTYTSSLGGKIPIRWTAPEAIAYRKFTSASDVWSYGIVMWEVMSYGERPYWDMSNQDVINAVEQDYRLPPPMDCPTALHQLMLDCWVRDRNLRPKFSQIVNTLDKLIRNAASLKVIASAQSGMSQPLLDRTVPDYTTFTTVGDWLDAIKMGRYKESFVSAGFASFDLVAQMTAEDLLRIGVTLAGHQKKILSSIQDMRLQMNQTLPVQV", "assay": "DSF Tm panel", "type": "binding", "details": "10 μM compound", "units": {"ΔTm at 10 µM": "°C"}}
{"smiles": "O=C(NCc1ccccc1)Nc1ccc2cc1OCCOCCNc1ccn3ncc-2c3n1", "note": "[compound 16]", "ΔTm at 10 µM": 0.8}
{"smiles": "O=C(NCc1ccccc1Cl)Nc1ccc2cc1OCCOCCNc1ccn3ncc-2c3n1", "note": "[compound 17]", "ΔTm at 10 µM": 0.3}
{"smiles": "O=C(NCc1cccc(Cl)c1)Nc1ccc2cc1OCCOCCNc1ccn3ncc-2c3n1", "note": "[compound 18]", "ΔTm at 10 µM": 0.2}
{"smiles": "O=C(NCc1ccc(Cl)cc1)Nc1ccc2cc1OCCOCCNc1ccn3ncc-2c3n1", "note": "[compound 19]", "ΔTm at 10 µM": -0.1}
{"target": "T3, CASKA (Homo sapiens, UniProt O14936)", "T3 construct": "purchased in-house DSF kinase panel (SGC-style construct names; the trailing letter is the construct ID)", "T3 sequence (O14936 12-276)": "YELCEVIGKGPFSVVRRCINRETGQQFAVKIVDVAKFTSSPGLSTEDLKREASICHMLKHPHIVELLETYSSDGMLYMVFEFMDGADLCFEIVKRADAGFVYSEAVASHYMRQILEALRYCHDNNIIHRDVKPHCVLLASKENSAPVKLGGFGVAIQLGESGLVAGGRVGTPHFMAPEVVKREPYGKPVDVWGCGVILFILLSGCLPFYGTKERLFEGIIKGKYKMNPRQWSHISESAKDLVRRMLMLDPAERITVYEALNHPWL", "assay": "DSF Tm panel", "type": "binding", "details": "10 μM compound", "units": {"ΔTm at 10 µM": "°C"}}
{"smiles": "O=C(NCc1ccccc1)Nc1ccc2cc1OCCOCCNc1ccn3ncc-2c3n1", "note": "[compound 16]", "ΔTm at 10 µM": 2.2}
{"smiles": "O=C(NCc1ccccc1Cl)Nc1ccc2cc1OCCOCCNc1ccn3ncc-2c3n1", "note": "[compound 17]", "ΔTm at 10 µM": 2.8}
{"smiles": "O=C(NCc1cccc(Cl)c1)Nc1ccc2cc1OCCOCCNc1ccn3ncc-2c3n1", "note": "[compound 18]", "ΔTm at 10 µM": 2.1}
{"smiles": "O=C(NCc1ccc(Cl)cc1)Nc1ccc2cc1OCCOCCNc1ccn3ncc-2c3n1", "note": "[compound 19]", "ΔTm at 10 µM": 2.2}
{"target": "T4, STK39A (Homo sapiens, UniProt Q9UEW8)", "T4 construct": "purchased in-house DSF kinase panel (SGC-style construct names; the trailing letter is the construct ID)", "assay": "DSF Tm panel", "type": "binding", "details": "10 μM compound", "units": {"ΔTm at 10 µM": "°C"}}
{"smiles": "O=C(NCc1ccccc1)Nc1ccc2cc1OCCOCCNc1ccn3ncc-2c3n1", "note": "[compound 16]", "ΔTm at 10 µM": 3}
{"smiles": "O=C(NCc1ccccc1Cl)Nc1ccc2cc1OCCOCCNc1ccn3ncc-2c3n1", "note": "[compound 17]", "ΔTm at 10 µM": 2.4}
{"smiles": "O=C(NCc1cccc(Cl)c1)Nc1ccc2cc1OCCOCCNc1ccn3ncc-2c3n1", "note": "[compound 18]", "ΔTm at 10 µM": 4}
{"smiles": "O=C(NCc1ccc(Cl)cc1)Nc1ccc2cc1OCCOCCNc1ccn3ncc-2c3n1", "note": "[compound 19]", "ΔTm at 10 µM": 2.6}
{"target": "T5, STK17BA (Homo sapiens, UniProt O94768)", "T5 construct": "purchased in-house DSF kinase panel (SGC-style construct names; the trailing letter is the construct ID)", "T5 sequence (O94768 25-329)": "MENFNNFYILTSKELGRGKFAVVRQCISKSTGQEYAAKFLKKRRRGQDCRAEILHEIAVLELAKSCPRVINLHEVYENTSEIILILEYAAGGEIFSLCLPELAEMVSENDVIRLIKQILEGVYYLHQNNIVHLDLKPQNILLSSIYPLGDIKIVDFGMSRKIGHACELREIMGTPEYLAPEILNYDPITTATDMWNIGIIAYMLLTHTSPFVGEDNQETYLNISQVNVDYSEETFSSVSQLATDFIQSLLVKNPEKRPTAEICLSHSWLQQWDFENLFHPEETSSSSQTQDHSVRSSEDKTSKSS", "assay": "DSF Tm panel", "type": "binding", "details": "10 μM compound", "units": {"ΔTm at 10 µM": "°C"}}
{"smiles": "O=C(NCc1ccccc1)Nc1ccc2cc1OCCOCCNc1ccn3ncc-2c3n1", "note": "[compound 16]", "ΔTm at 10 µM": 1.3}
{"smiles": "O=C(NCc1ccccc1Cl)Nc1ccc2cc1OCCOCCNc1ccn3ncc-2c3n1", "note": "[compound 17]", "ΔTm at 10 µM": 4.1}
{"smiles": "O=C(NCc1cccc(Cl)c1)Nc1ccc2cc1OCCOCCNc1ccn3ncc-2c3n1", "note": "[compound 18]", "ΔTm at 10 µM": 2.4}
{"smiles": "O=C(NCc1ccc(Cl)cc1)Nc1ccc2cc1OCCOCCNc1ccn3ncc-2c3n1", "note": "[compound 19]", "ΔTm at 10 µM": 1.2}
{"target": "T6, FGFR2A (Homo sapiens, UniProt P21802)", "T6 construct": "purchased in-house DSF kinase panel (SGC-style construct names; the trailing letter is the construct ID)", "T6 sequence (P21802 458-770)": "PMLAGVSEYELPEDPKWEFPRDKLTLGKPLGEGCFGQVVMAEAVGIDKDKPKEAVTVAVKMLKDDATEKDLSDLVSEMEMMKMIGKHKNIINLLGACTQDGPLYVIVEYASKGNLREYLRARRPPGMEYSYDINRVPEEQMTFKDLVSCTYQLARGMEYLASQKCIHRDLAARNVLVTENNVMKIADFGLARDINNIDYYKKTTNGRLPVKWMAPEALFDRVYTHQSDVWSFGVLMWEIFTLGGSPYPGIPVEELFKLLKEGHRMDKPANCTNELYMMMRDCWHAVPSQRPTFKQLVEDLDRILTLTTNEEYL", "assay": "DSF Tm panel", "type": "binding", "details": "10 μM compound", "units": {"ΔTm at 10 µM": "°C"}}
{"smiles": "O=C(NCc1ccccc1)Nc1ccc2cc1OCCOCCNc1ccn3ncc-2c3n1", "note": "[compound 16]", "ΔTm at 10 µM": 4.8}
{"smiles": "O=C(NCc1ccccc1Cl)Nc1ccc2cc1OCCOCCNc1ccn3ncc-2c3n1", "note": "[compound 17]", "ΔTm at 10 µM": 1.7}
{"smiles": "O=C(NCc1cccc(Cl)c1)Nc1ccc2cc1OCCOCCNc1ccn3ncc-2c3n1", "note": "[compound 18]", "ΔTm at 10 µM": 3.3}
{"smiles": "O=C(NCc1ccc(Cl)cc1)Nc1ccc2cc1OCCOCCNc1ccn3ncc-2c3n1", "note": "[compound 19]", "ΔTm at 10 µM": 3.7}
{"target": "T7, DCAMKL1A (Homo sapiens, UniProt O15075)", "T7 construct": "purchased in-house DSF kinase panel (SGC-style construct names; the trailing letter is the construct ID)", "T7 sequence (O15075 372-649)": "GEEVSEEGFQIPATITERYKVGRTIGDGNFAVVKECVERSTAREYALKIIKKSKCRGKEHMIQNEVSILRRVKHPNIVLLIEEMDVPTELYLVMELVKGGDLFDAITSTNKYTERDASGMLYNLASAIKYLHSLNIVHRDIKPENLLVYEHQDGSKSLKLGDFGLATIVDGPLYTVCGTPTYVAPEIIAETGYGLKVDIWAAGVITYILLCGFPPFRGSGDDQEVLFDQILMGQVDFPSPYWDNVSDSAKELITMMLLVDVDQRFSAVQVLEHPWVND", "assay": "DSF Tm panel", "type": "binding", "details": "10 μM compound", "units": {"ΔTm at 10 µM": "°C"}}
{"smiles": "O=C(NCc1ccccc1)Nc1ccc2cc1OCCOCCNc1ccn3ncc-2c3n1", "note": "[compound 16]", "ΔTm at 10 µM": 0.8}
{"smiles": "O=C(NCc1ccccc1Cl)Nc1ccc2cc1OCCOCCNc1ccn3ncc-2c3n1", "note": "[compound 17]", "ΔTm at 10 µM": 0.7}
{"smiles": "O=C(NCc1cccc(Cl)c1)Nc1ccc2cc1OCCOCCNc1ccn3ncc-2c3n1", "note": "[compound 18]", "ΔTm at 10 µM": -0.1}
{"smiles": "O=C(NCc1ccc(Cl)cc1)Nc1ccc2cc1OCCOCCNc1ccn3ncc-2c3n1", "note": "[compound 19]", "ΔTm at 10 µM": 0}
{"target": "T8, MAP2K1A (Homo sapiens, UniProt Q02750)", "T8 construct": "purchased in-house DSF kinase panel (SGC-style construct names; the trailing letter is the construct ID)", "T8 sequence (Q02750 68-361)": "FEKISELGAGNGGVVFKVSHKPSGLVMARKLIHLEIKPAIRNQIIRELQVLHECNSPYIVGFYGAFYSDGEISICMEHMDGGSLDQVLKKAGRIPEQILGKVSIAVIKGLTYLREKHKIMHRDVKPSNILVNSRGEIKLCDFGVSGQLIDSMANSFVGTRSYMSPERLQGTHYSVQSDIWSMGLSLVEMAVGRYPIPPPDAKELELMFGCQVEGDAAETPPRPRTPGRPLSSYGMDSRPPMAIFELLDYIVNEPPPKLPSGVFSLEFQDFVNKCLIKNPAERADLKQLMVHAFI", "assay": "DSF Tm panel", "type": "binding", "details": "10 μM compound", "description": "The synthesized urea-based derivatives were evaluated in a panel of kinases by differential scanning fluorescence (DSF) to investigate their selectivity profile. A positive ΔT m in the DSF assay indicates stabilization of the protein upon ligand binding in comparison to its apo state, with higher thermal shifts generally correlating with stronger binding. For this purpose, we used our internal kinase selectivity panel (∼90 kinases) along with staurosporine as a positive control. […] This was also reflected in the overall low selectivity score (S) throughout the series, which is determined by the ratio between the number of kinases that are stabilized above 5 °C and the total number of kinases tested (Figure ). Motivated by these findings, we further validated the entire series by orthogonal binding and activity assays to determine the in vitro and cellular potency and selectivity of the developed series in comparison to the selected reference compounds. […]\nwas performed as previously described.[1,2] Briefly, recombinant protein kinase domains at a concentration of 2 μM were mixed with 10 μM compound in a buffer containing 20 mM HEPES, […]\nprobe (1 µl per mL). Subsequently, temperature-dependent protein unfolding profiles were […]\nemission filters were set to 465 nm and 590 nm, respectively. The temperature was raised with a step rate of 3 °C per minute. […]\ninflection point of the transition curve. […]\npreviously.[3] In brief, STK10, STK3, STK4 and SLK were obtained as plasmids cloned in […]\nPlasmids were transfected into\nKD concentration taken from TracerDB (tracerdb.org)[4] were pipetted into white 384-well", "units": {"ΔTm at 10 µM": "°C"}}
{"smiles": "O=C(NCc1ccccc1)Nc1ccc2cc1OCCOCCNc1ccn3ncc-2c3n1", "note": "[compound 16]", "ΔTm at 10 µM": -0.1}
{"smiles": "O=C(NCc1ccccc1Cl)Nc1ccc2cc1OCCOCCNc1ccn3ncc-2c3n1", "note": "[compound 17]", "ΔTm at 10 µM": -0.2}
{"smiles": "O=C(NCc1cccc(Cl)c1)Nc1ccc2cc1OCCOCCNc1ccn3ncc-2c3n1", "note": "[compound 18]", "ΔTm at 10 µM": 0.2}
{"smiles": "O=C(NCc1ccc(Cl)cc1)Nc1ccc2cc1OCCOCCNc1ccn3ncc-2c3n1", "note": "[compound 19]", "ΔTm at 10 µM": 0.1}
{"target": "SLK (Homo sapiens, UniProt Q9H2G2)", "assay": "DSF Tm panel", "type": "binding", "parameters": "purchased in-house DSF kinase panel (SGC-style construct names; the trailing letter is the construct ID)", "details": "10 μM compound", "units": {"ΔTm at 10 µM": "°C"}}
{"smiles": "O=C(NCc1ccccc1)Nc1ccc2cc1OCCOCCNc1ccn3ncc-2c3n1", "note": "[compound 16]", "ΔTm at 10 µM": 4.4}
{"smiles": "O=C(NCc1ccccc1Cl)Nc1ccc2cc1OCCOCCNc1ccn3ncc-2c3n1", "note": "[compound 17]", "ΔTm at 10 µM": 4.8}
{"smiles": "O=C(NCc1cccc(Cl)c1)Nc1ccc2cc1OCCOCCNc1ccn3ncc-2c3n1", "note": "[compound 18]", "ΔTm at 10 µM": 4.7}
{"smiles": "O=C(NCc1ccc(Cl)cc1)Nc1ccc2cc1OCCOCCNc1ccn3ncc-2c3n1", "note": "[compound 19]", "ΔTm at 10 µM": 5.2}
